The values below come from PubChem BioAssay (NCI).

Among the test systems are SW-620 colon; OVCAR-5 ovarian; CCRF-CEM leukemia; SF-539 CNS; SK-MEL-2 melanoma; NCI-H460 lung; BT-549 breast; DU-145 prostate; MDA-MB-435; NCI-H23 lung.
Holding throughout (test): inhibition of tumour cell growth, NCI panel, 48 h

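Test compounds were applied to cells in 96-well plates for 48 hours at 5 doses. Here, GI50 denotes the concentration required for 50% inhibition of growth. Definition used: TGI = concentration required for complete inhibition of growth.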

With `N#Cc1ccccc1C#C/C=C\C#Cc1ccccc1N`, the GI50 in the experiment on SW-620 colon is 3.76 µM; in the experiment with OVCAR-5 ovarian, 5 µM; in the experiment on CCRF-CEM leukemia, 1.6 µM; in the experiment with SF-539 CNS, 4.49 µM; in the experiment with SK-MEL-2 melanoma it was 1.17 µM; in the experiment with NCI-H460 lung, 5.43 µM. For the same molecule, the GI50 in the experiment on BT-549 breast was 8.39 µM; with DU-145 prostate, 13.9 µM; in the experiment with MDA-MB-435 it was 1.34 µM; in the experiment on NCI-H23 lung, 2.88 µM. The TGI with SW-620 colon is more than 100 µM; in the experiment with OVCAR-5 ovarian, more than 62.6 µM; with CCRF-CEM leukemia it was more than 100 µM; in the experiment with SF-539 CNS, more than 20.2 µM; with SK-MEL-2 melanoma it was 8.2 µM; in the experiment with NCI-H460 lung it was more than 100 µM. The TGI was more than 28.2 µM in the experiment on BT-549 breast, more than 100 µM in the experiment on DU-145 prostate, 3.21 µM in the experiment with MDA-MB-435 and 29.2 µM in the experiment with NCI-H23 lung.
For the molecule `Cc1ccc(OCC2=NC3S/C(=C/c4ccc([N+](=O)[O-])o4)C(=O)N3N2)cc1` (stereo not given), the TGI in the experiment on SW-620 colon was 15 µM; in the experiment with OVCAR-5 ovarian it was 35.2 µM; in the experiment with CCRF-CEM leukemia, 35.3 µM; in the experiment on SF-539 CNS, 4.3 µM; in the experiment with SK-MEL-2 melanoma, 31.7 µM; in the experiment on NCI-H460 lung it was 41.6 µM. Moreover, the TGI with BT-549 breast amounted to 25.1 µM; in the experiment with DU-145 prostate, 20.5 µM; with MDA-MB-435 it was 19.8 µM; in the experiment with NCI-H23 lung it was 28.8 µM.
In the case of `Nc1cc(S(=O)(=O)O)cc2ccc(S(=O)(=O)O)cc12`, the TGI in the experiment with SW-620 colon, with OVCAR-5 ovarian, in the experiment on CCRF-CEM leukemia, in the experiment with SF-539 CNS, with SK-MEL-2 melanoma and with NCI-H460 lung was more than 100 µM each time. Besides, the TGI with BT-549 breast, in the experiment on DU-145 prostate, in the experiment with MDA-MB-435 and in the experiment with NCI-H23 lung was more than 100 µM each time.
For the molecule `CCN1CCN(c2nc3ccccc3nc2C(=O)c2ccc(OC)c(OC)c2)CC1`, the TGI in the experiment with SW-620 colon is more than 100 µM; with OVCAR-5 ovarian, more than 100 µM; with CCRF-CEM leukemia it was 46 µM; with SF-539 CNS, 3.14 µM; in the experiment with SK-MEL-2 melanoma it was more than 100 µM; in the experiment on NCI-H460 lung, 50.2 µM. Besides, the TGI with BT-549 breast is 65.6 µM; in the experiment with DU-145 prostate, more than 100 µM; with MDA-MB-435, 90.6 µM; in the experiment on NCI-H23 lung, 98.4 µM.
With `N=c1ccc2nc(N)nn(O)c-2c1`, the TGI in the experiment with SW-620 colon, in the experiment with OVCAR-5 ovarian, with CCRF-CEM leukemia, in the experiment on SF-539 CNS, in the experiment with SK-MEL-2 melanoma and in the experiment on NCI-H460 lung was more than 100 µM in each case. Besides, the TGI in the experiment with BT-549 breast, in the experiment with DU-145 prostate, in the experiment with MDA-MB-435 and in the experiment with NCI-H23 lung was more than 100 µM each time.
